56 molecules from article PMC12040169 (PLOS Biology, 2025) can be followed below.

What is called viability is a read-out of living cells in per cent, often relative to untreated cells.

The series can be described thus: in vitro. The note with it: human, hela cells, % viability.

Molecules are shown by their SMILES.

Consider `Cc1cccc(CCNC(=O)CC2CCN(C(=O)CC3CCCCC3)CC2)c1` [CBK285964], for which the viability at 28.5 h, 10 µM came out at 114%.

Regarding `Cc1ccc2nc(-c3ccc(N4C(=O)CC(N5CCC(N6CCCCC6)CC5)C4=O)cc3)sc2c1` (centres unmarked) [CBK265315], the viability at 28.5 h, 10 µM worked out at 114%. Consider `CCOC(=O)C1(C2CCCCC2)CCN(C(=O)CC2CCCCC2)CC1` [CBK136919], for which the viability at 28.5 h, 10 µM was determined as 96.2%. Same read-out and setting: with `COc1ccccc1NC(=O)NC(=O)C1CCN(CCc2cccs2)CC1` [CBK034912] the figure was 87.5%; with `O=C(CSc1nc(-c2cccc([N+](=O)[O-])c2)cs1)NCC1CCCO1` (centres unmarked) [CBK268020], 92.8%. Still for that read-out and setting: as for `O=C(c1ccc(F)cc1F)N1CCC(O)(c2ccccn2)CC1` [CBK283671], the figure is 107%; as for `CSc1cc(CC(C)(C)C)c2cccc(F)c2n1` [CBK018791], 99.8%. For the molecule `Cc1cc(C)cc(NC(=O)C2CC(=O)N=C(NCc3ccccc3)N2)c1` (centres unmarked) [CBK269054], the viability at 28.5 h, 10 µM came to 87.1%.

With `O=C(NCC1CCCCC1)C1(Cc2cccc(-c3cccnc3)c2)CCOCC1` [CBK285607], the viability at 28.5 h, 10 µM worked out at 97.5%.

Turning to `O=C(c1ccc(F)cc1)C1CCN(Cc2ccc3ccccc3c2)CC1` [CBK149122], the viability at 28.5 h, 10 µM was 79.9%. Still for that read-out and setting: as for `C(=C\c1nccnc1OCCn1cccc1)/c1ccccc1` [CBK106884], the figure is 94%.

Take `C/C(=N\NC(=O)c1ccccc1O)c1ccc(NC(=O)c2ccc(C)cc2)cc1` [CBK261251]: the viability at 28.5 h, 10 µM was determined as 84.7%. `Cc1onc(-c2ccccc2)c1C(=O)NCCCn1ccnc1` [CBK262870]: the viability at 28.5 h, 10 µM amounted to 96.2%. The same measure, in the same setting: as for `COc1ccc(S(=O)(=O)Nc2nc(C)c(C(=O)Nc3ccc(F)cc3)s2)cc1OC` [CBK050538], the figure is 103%.

Consider `O=C1NC(=O)C(CCC(=O)N2CCN(c3nc4ccccc4s3)CC2)C(=O)N1` [CBK285807], for which, where the note is “bulk resorufin, single well”, the viability at 28.5 h, 10 µM amounted to 86.6%. With `CCc1cccc(NC(=O)c2cnc(-c3ccc(Cl)cc3)c(-c3ccc(OC)nc3)c2)n1` [CBK036671], the viability at 28.5 h, 10 µM was 93.7%. On the same count and under the same terms, as for `Cc1ccc(-c2nc3ccc(C)cc3c(C(=O)OCC(=O)c3cccc([N+](=O)[O-])c3)c2C)cc1` [CBK264436], the figure is 104%; as for `Cc1sc2nc(Cc3ccccc3)n(C3CCN(C(=O)c4ccco4)CC3)c(=O)c2c1C` [CBK286317], 97.3%; as for `CCCCN(C)S(=O)(=O)NCc1cn2ccccc2n1` [CBK306329], 97.9%. For `Cc1ccsc1-c1nc2cnccn2c1NC1CCCC1` [CBK283524], the viability at 28.5 h, 10 µM came to 93.9%.

Turning to `CC(Oc1ccc2c(c1)OCO2)C(=O)NNC(=O)Nc1cccc(C(F)(F)F)c1` (centres unmarked) [CBK266922], the viability at 28.5 h, 10 µM turned out to be 87.7%. The same measure, in the same setting: with `O=C(c1ccc(F)cc1)C1CCN(CC(O)COc2cccc3c2CCCC3)CC1` (centres unmarked) [CBK003583] the figure was 101%. As for `CCN1CCN(S(=O)(=O)c2ccccc2F)CC1` [CBK100558], the viability at 28.5 h, 10 µM came out at 104%. Regarding `CCOc1ccc(Cl)cc1CCNC(=O)NC(C)c1nnnn1C` (centres unmarked) [CBK305923], the viability at 28.5 h, 10 µM came out at 89.2%.

With `Cc1ccc(C(=O)NCCCN2CCC3(CC2)OCCc2c3[nH]c3ccccc23)cc1` [CBK113485], the viability at 28.5 h, 10 µM is 85.5%. Take `CCNS(=O)(=O)c1ccc(CCC(=O)Nc2ccc3c(c2)OCCO3)cc1` [CBK268255]: the viability at 28.5 h, 10 µM was 109%. As for `COc1cc2c(cc1CNS(=O)(=O)c1ccc3[nH]c(=O)[nH]c(=O)c3c1)CCC2` [CBK286396], the viability at 28.5 h, 10 µM amounted to 98.7%. Regarding `CCn1c(SCC(=O)Nc2ccc(N3CCOCC3)cc2)nnc1-c1ccncc1` [CBK269765], the viability at 28.5 h, 10 µM worked out at 89.7%. As for `Cc1cc(C(=O)CSc2ccc(Cl)nn2)c(C)n1C1CC1` [CBK305512], the viability at 28.5 h, 10 µM came out at 99.2%.

Consider `O=C(O)c1[nH]c2ccccc2c1NS(=O)(=O)c1cc(F)c(Br)cc1F` [CBK049885], for which the viability at 28.5 h, 10 µM was found to be 62.8%. Consider `CC(C)CCCC(=O)n1ccn(-c2ccc(N(C)C)cc2)c1=O` [CBK106603], for which the viability at 28.5 h, 10 µM was 92.7%. The same measure, in the same setting: with `COc1cc(-c2cnc3[nH]c(=O)n(CCc4ccncc4)c3n2)cc(OC)c1OC` [CBK064620] the figure was 96.9%.

For the molecule `NC(=O)c1ccc(-c2cnc3[nH]c(=O)n(CCCN4CCOCC4)c3n2)cc1` [CBK065092], the viability at 28.5 h, 10 µM came out at 102%. The same measure, in the same setting: as for `COc1ccccc1NC(=O)N1C[C@@H]2C[C@H](C1)c1c(-c3ccccc3F)ccc(=O)n1C2` [CBK289192], the figure is 92.7%; as for `CCn1c2ccccc2c2cc(CN(C)Cc3ccccc3)ccc21` [CBK261901], 94.1%. With `COc1cc(OC)nc(C(NC(=O)C2CCN(Cc3nccs3)CC2)c2ccc(Cl)cc2)n1` (centres unmarked) [CBK148217], the viability at 28.5 h, 10 µM stood at 85.8%.

For `O=C1NC(=O)C(=NNc2ccc(S(=O)(=O)O)cc2)C(=O)N1` [CBK261439], the viability at 28.5 h, 10 µM (bulk resorufin, single well) turned out to be 88.7%. Turning to `S=C(NCCC(c1ccccc1)c1ccccc1)NC1CCCCC1` [CBK264007], the viability at 28.5 h, 10 µM turned out to be 96.3%.

Consider `COc1cc(/C=C2/C(=O)N(c3ccc(Cl)c(C(=O)O)c3)N=C2C)ccc1Oc1nc2c(c(=O)n(C)c(=O)n2C)n1C` [CBK262962], for which the viability at 28.5 h, 10 µM is 91.1%.

As to `CN(C)c1ncc(-c2ccc(O)cc2)cc1C(=O)NCc1ccc(F)cc1` [CBK106396], the viability at 28.5 h, 10 µM turned out to be 91.5%.

In the case of `OC(Cn1ccnc1)C1CCCCC1` (centres unmarked) [CBK010092], the viability at 28.5 h, 10 µM came out at 78.3%. Still for that read-out and setting: as for `CCc1nnc(NS(=O)(=O)c2ccc(NC(=O)c3ccc(Cl)cc3Cl)cc2)s1` [CBK045493], the figure is 88.5%.

For `CC(=O)Nc1cccc(CN(C)C(CCO)c2ccccc2)c1` (centres unmarked) [CBK305127], the viability at 28.5 h, 10 µM was 95.8%. Still for that read-out and setting: with `Cc1ccccc1NC(=O)Nc1cccc(F)c1` [CBK105831] the figure was 88.3%; with `c1ccc(CCN2CCC(Oc3nccnc3OCc3cccnc3)CC2)nc1` [CBK083180], 103%.

As for `Cc1cc(NC(=O)CN2CCCC2CC(O)c2ccccc2)no1` (centres unmarked) [CBK305139], the viability at 28.5 h, 10 µM was 88.8%. Turning to `Cc1csc2c(C3CCCN(C(=O)c4cnn(C)c4)C3)nc(C)n12` (centres unmarked) [CBK284595], the viability at 28.5 h, 10 µM turned out to be 98.5%. Still for that read-out and setting: as for `N#CC1CCCc2c1[nH]c1ccccc21` (centres unmarked) [CBK098397], the figure is 74.9%. The same measure, in the same setting: as for `COc1cccc(C(=O)Nc2cc3c(cc2C(O)c2ccccc2Cl)OCCO3)c1` (centres unmarked) [CBK268004], the figure is 99.3%; as for `CN(C)c1ccccc1-c1cc(NC2CCCCC2)ncn1` [CBK037041], 105%. Take `Cc1ccc(C(CCO)Nc2ncnc3c2c(C)nn3C)cc1` (centres unmarked) [CBK307387]: the viability at 28.5 h, 10 µM stood at 82.1%. In the case of `CC(=O)Nc1cc(C(=O)NCCc2ccccc2)ccc1S(=O)(=O)c1ccc(C)cc1` [CBK071771], the viability at 28.5 h, 10 µM stood at 89.3%. On the same count and under the same terms, as for `CC(C)OC(=O)Cn1c(C2CCCNC2)cc2cccnc21` (centres unmarked) [CBK285058], the figure is 100%.

Regarding `CCN(CC)C(=O)c1sc(NC(=O)c2cc(-c3ccncc3)nc3c(C)cccc23)c(C#N)c1C` [CBK267771], the viability at 28.5 h, 10 µM was determined as 93.6%. Take `O=C1CSC(c2cn(-c3ccccc3)nc2-c2ccc(Br)cc2)N1Cc1ccccc1` (centres unmarked) [CBK263146]: the viability at 28.5 h, 10 µM was 97.4%. As to `O=C(NC1CC1)C1CCN(Cn2nnc3ccccc3c2=S)CC1` [CBK306342], the viability at 28.5 h, 10 µM stood at 94.1%.
